Literature values as cited in publication PMC11478287, “Design and Synthesis of Pyridyl and 2-Hydroxyphenyl Chalcones with Antitubercular Activity” (Molecules, 2024).

Test system: PtpA
Set-up: method as in PMID 18930396
Details: cited from earlier work

COc1cc(C(=O)/C=C/c2ccc3c(c2)OCO3)cc(OC)c1OC [Compound 2]
PtpA inhibition activity (in words): very low PtpA inhibition activity
